Experimental data taken from US7915303B2, “Glycopyrronium salts and their therapeutic use” (priority 2005, dated 2011).

Key:
Assay type in all cases: physicochemical
[1] = Characterisation of moisture sorption (hygroscopicity) of the amorphous form; conditions: sorption of moisture at low relative humidity
Text: Part of the development of glycopyrronium bromide involves milling of the active substance down to a particle size suitable for use in a dry powder inhalation formulation. […] This material becomes sticky upon sorption of moisture at low relative humidity (RH), and then finally crystallises to a non-hygoscopic hard crystalline substance.
The amorphous form of glycopyrronium iodide (2), for example, can be formed by physical techniques such as spray drying or lyophylisation and its sorption behaviour studied by dynamic vapour sorption (DVS) varying RH over time.

[2] = Glass transition temperature by differential scanning calorimetry (DSC); conditions: for glass transition temperature (Tg) compared with glycopyrronium bromide: comparison with glycopyrronium bromide (1)
[3] = TG-FTIR thermal stability (weight loss / degradation)

Compound | hygroscopicity of the amorphous form [1] | glass transition temperature (Tg) ([2]; amorphous material, determined by DSC) [°C] | TG-FTIR weight loss / degradation [3] | glass transition temperature (Tg) compared with glycopyrronium bromide [2] | Tg (glass transition) ([2]; lyophilized material, DSC second scan) [°C]
C[N+]1(C)CCC(OC(=O)C(O)(c2ccccc2)C2CCCC2)C1 (stereo not drawn) [glycopyrronium bromide, reference compound] | highly hygroscopic | 64.9 | – | – | –
Glycopyrronium Acetate | – | – | no significant weight loss below 200° C., degrades above this temperature | lower glass transition temperature (Tg) than glycopyrronium bromide | –
Glycopyrronium Iodide | – | – | no significant weight loss below 200° C., degrades above this temperature | lower glass transition temperature (Tg) than glycopyrronium bromide | 55
Glycopyrronium Sulphate | – | – | no significant weight loss below 200° C., degrades above this temperature | lower glass transition temperature (Tg) than glycopyrronium bromide | –
